Among the data in ChEMBL document CHEMBL2169741, “Analysis of the discriminative inhibition of mammalian digestive lipases by 3-phenyl substituted 1,3,4-oxadiazol-2(3H)-ones” (Eur J Med Chem, 2012) are T1/2, inhibition and XI50 values, retold here.

Test [1] deals with T1, Pancreatic triacylglycerol lipase (Homo sapiens) (UniProt P16233).
T1 sequence (whole entry): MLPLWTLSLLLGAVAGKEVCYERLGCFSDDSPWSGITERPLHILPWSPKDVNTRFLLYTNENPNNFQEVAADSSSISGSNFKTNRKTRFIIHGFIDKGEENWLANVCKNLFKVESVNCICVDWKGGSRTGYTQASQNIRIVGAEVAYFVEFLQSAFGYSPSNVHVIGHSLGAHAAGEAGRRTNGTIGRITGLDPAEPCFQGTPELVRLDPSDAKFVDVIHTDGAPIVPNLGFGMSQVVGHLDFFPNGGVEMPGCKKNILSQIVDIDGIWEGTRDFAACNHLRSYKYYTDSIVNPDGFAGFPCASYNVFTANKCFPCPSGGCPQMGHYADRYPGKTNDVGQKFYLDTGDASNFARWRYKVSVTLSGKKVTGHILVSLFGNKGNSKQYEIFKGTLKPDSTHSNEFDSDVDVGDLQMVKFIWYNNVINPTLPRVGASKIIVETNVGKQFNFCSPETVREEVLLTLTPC
The test can be described thus: Inhibition of recombinant HPL expressed in Pichia pastoris assessed as half inactivation time at 100 molar excess in presence of NaTDC.

The target of test [2] is T2, Bile salt-activated lipase (Homo sapiens) (UniProt P19835).
T2 sequence (whole entry): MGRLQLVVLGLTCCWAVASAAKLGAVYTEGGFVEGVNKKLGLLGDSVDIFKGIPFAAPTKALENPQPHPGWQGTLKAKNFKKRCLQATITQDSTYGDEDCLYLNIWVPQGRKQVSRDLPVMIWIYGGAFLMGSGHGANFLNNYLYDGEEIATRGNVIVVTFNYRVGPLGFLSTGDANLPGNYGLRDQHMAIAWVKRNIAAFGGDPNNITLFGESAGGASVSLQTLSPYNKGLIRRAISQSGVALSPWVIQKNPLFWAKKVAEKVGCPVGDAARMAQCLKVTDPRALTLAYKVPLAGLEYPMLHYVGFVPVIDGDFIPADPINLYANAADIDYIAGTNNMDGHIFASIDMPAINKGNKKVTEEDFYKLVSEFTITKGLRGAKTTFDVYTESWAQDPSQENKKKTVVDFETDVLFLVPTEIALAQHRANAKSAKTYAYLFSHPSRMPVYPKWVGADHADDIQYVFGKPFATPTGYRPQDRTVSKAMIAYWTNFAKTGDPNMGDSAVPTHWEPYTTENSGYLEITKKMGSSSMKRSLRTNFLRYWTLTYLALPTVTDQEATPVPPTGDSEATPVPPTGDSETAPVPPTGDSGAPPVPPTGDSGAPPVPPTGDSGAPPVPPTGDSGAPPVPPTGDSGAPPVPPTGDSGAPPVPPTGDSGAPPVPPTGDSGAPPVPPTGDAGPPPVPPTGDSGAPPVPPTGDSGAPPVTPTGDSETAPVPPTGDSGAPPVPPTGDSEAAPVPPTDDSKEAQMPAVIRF
The test can be described thus: Inhibition of human pancreatic CEH assessed as residual activity at 40 molar excess after 30 mins by mass spectrophotometric analysis.

The target in test [3] is T3, Pancreatic triacylglycerol lipase (Sus scrofa) (UniProt P00591).
T3 sequence (whole entry): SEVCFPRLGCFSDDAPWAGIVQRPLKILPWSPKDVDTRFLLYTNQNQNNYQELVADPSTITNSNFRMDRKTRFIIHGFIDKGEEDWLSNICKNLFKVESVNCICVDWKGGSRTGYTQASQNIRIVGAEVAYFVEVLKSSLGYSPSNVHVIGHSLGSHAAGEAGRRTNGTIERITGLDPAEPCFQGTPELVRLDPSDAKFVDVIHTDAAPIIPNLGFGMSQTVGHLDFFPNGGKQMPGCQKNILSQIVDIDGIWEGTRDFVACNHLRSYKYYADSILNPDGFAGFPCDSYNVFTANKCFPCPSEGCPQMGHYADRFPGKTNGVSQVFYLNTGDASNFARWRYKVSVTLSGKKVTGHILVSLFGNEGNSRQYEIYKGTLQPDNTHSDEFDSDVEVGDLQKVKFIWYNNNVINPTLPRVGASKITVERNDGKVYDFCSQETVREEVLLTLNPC
Kind of test: Inhibition of PPL after 30 mins in presence of NaTDC.

In test [4] the target is T4, Pancreatic lipase-related protein 2 (Homo sapiens) (UniProt P54317).
T4 sequence (whole entry): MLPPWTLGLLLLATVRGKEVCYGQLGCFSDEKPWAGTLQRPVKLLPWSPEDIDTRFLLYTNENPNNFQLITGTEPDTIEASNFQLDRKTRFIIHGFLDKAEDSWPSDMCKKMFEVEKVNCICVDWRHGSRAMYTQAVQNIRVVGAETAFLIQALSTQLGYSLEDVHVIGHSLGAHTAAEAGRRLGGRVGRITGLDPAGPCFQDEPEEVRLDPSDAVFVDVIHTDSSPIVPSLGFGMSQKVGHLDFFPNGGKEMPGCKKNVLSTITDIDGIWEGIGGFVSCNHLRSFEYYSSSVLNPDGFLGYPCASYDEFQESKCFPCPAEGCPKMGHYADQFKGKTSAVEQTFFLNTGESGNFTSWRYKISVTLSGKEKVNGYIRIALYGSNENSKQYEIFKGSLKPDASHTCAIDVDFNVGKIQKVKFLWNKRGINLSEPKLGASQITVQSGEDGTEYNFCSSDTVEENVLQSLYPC
Kind of test: Inhibition of recombinant HPLRP2 expressed in Pichia pastoris at 20 molar excess after 30 mins in presence of NaTDC.

The target of test [5] is T1, Pancreatic triacylglycerol lipase (Homo sapiens). Kind of test: Inhibition of recombinant HPL expressed in Pichia pastoris at 400 molar excess after 30 mins in presence of NaTDC.
The target in test [6] is T5, Gastric triacylglycerol lipase (Canis lupus familiaris) (UniProt P80035).
T5 sequence (whole entry): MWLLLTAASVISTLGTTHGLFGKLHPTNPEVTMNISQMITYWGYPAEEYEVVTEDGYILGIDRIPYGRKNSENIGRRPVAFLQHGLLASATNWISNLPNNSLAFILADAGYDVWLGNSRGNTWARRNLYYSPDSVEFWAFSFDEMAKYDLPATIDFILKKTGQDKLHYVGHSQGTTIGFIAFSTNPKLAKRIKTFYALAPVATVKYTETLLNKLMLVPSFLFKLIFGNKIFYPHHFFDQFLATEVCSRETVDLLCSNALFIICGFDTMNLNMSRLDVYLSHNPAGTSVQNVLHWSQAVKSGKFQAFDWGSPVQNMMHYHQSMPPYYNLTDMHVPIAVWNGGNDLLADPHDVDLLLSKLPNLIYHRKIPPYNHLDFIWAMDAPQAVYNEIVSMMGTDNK
Kind of test: Inhibition of recombinant DGL expressed in transgenic maize assessed as half inactivation time at 20 molar excess in presence of NaTDC.

The species named for test [7] is Sus scrofa. The test can be described thus: Inhibition of porcine Pancrelipase at 400 molar excess after 30 mins.
In test [8] the target is T4, Pancreatic lipase-related protein 2 (Homo sapiens). Kind of test: Inhibition of recombinant HPLRP2 expressed in Pichia pastoris at 2 molar excess after 30 mins in presence of NaTDC.
For test [9], the target named is T5, Gastric triacylglycerol lipase (Canis lupus familiaris). Kind of test: Inhibition of recombinant DGL expressed in transgenic maize assessed as hydrolysis of trybutyrin emulsion at 10 to 40 molar excess after 30 mins in absence of NaTDC.

Each structure is given as a SMILES string. The source made the active and inactive calls. The rule behind the calls is not given here.

As a reminder, the inhibition is the drop in the measured response relative to a control, in per cent.

Regarding `COc1nn(-c2cccc(Oc3ccccc3)c2)c(=O)o1`, the figures for the T1/2 in test [1] and in test [6] were more than 120 min and 1.88 min, respectively. For the same compound, the inhibition entry in test [2] was “Active”. Further, the XI50 in test [3] came out at 26.5 molar excess. For the same compound, the inhibition in test [4] came to 81.2%; in [5], 42.7%; in test [7], 89.7%; in test [8] it was 63.7%; in [9], 65%.

Regarding `CCCCCCCCCCC[C@@H](C[C@@H]1OC(=O)[C@H]1CCCCCC)OC(=O)[C@H](CC(C)C)NC=O`, the results for the T1/2 in test [1] and in [6] were 1.64 min and 0.59 min, respectively. Moreover, the XI50 in test [3] was determined as 2.76 molar excess. The inhibition in test [4] turned out to be 86.3%; in test [5] it was 85%; in [7], 93.1%; in test [8] it was 83.6%.

For the compound `COc1nn(-c2ccccc2)c(=O)o1`, the inhibition entry in test [1] and in [5] was “inactive” in each case. For the same compound, in test [3], the XI50 is more than 400 molar excess. Moreover, the inhibition in test [4] came to 92.7%; in test [7] it was 34.1%; in test [8], 49.9%. For the same compound, the T1/2 in test [6] is more than 60 min.

Take `COc1nn(-c2ccc(Oc3ccccc3)cc2)c(=O)o1`: the T1/2 in [1] is more than 120 min; in test [6], 9.31 min. Further, in test [3], the XI50 amounted to 57.6 molar excess. In addition, the inhibition in test [4] was 88.8%; in [5] it was 20%; in test [7], 90.6%; in test [8] it was 66%; in [9], 65%.
